Consider one compound from paper PMC11390765 (Cancer Chemotherapy and Pharmacology, 2024).

Usually CL/F stands for clearance divided by bioavailability, as obtained after extravascular dosing.

Series [1] in a line: Plasma pharmacokinetics of capivasertib and its glucuronide metabolite. The class given is in vivo, human. The following applies: for Ctrough cycle 1, day 13: 12 h post day 12 capivasertib evening dose; for Ctrough cycle 1, day 9: after 3 off-capivasertib-dosing days; for tmax: median (range).
The test system of series [2] is advanced solid tumors. The series can be described thus: Exploratory efficacy (RECIST 1.1, investigator assessment). It is filed as in vivo, human. The following applies: capivasertib 400 mg BID 4 days on/3 days off. On the procedure:
Efficacy was evaluated as an exploratory endpoint by investigator assessment, and per Response Evaluation Criteria in Solid Tumors (RECIST) version 1.1. Tumor assessments were performed by CT and/or MRI scans at screening and then every 8 weeks (± 7 days; earlier if clinically indicated) for 2 years, and then every 12 weeks until disease progression. Radiographic bone scans were performed at screening and repeated as clinically indicated, depending on tumor type.
Safety analyses were performed on the full analysis set, which consisted of all patients who received at least one dose of midazolam and/or capivasertib, irrespective of protocol adherence or continued participation in the study. Efficacy analyses were also performed on the full analysis set. Summary and/or descriptive statistics were used to analyze baseline demographic, safety, and efficacy data; PFS and DoR were estimated using Kaplan–Meier methodology.

Where [3] appears, read: geometric mean (gCV%), listed as Capivasertib.

SMILES strings stand for the structures. Marks after values point to notes of the source that are not given here.

`NC1(C(=O)N[C@@H](CCO)c2ccc(Cl)cc2)CCN(c2nc[nH]c3nccc2-3)CC1` [capivasertib]: in series [1] (geometric mean (gCV%), 12-h dosing interval, day 12 of cycle 1, capivasertib 400 mg BID), the AUCτ came out at 8499 ng·h/mL. In addition, in series [1] (geometric mean (gCV%)), the “Ctrough cycle 1, day 13” value stood at 281.5 ng/mL and the “Ctrough cycle 1, day 9” value stood at 10.96 ng/mL. In addition, in series [1] (setting [3]), the “Ctrough cycle 1, day 13” value is listed as 281.5^f (53.3) ng/mL and the “Ctrough cycle 1, day 9” value is recorded as 10.96^e (137.0) ng/mL. In addition, in series [1] (geometric mean (gCV%), day 12 of cycle 1, 4th day on capivasertib 400 mg BID, with single oral midazolam 1 mg), the Cmax was found to be 1779 ng/mL. In addition, the t½λz in series [1] (geometric mean (gCV%), day 12 of cycle 1, capivasertib 400 mg BID) was found to be 3.76 h. For the same compound, the apparent clearance CL/F in series [1] (geometric mean (gCV%), day 12 of cycle 1, capivasertib 400 mg BID oral) is listed as 46.4 L/h. In series [1] (day 12 of cycle 1, capivasertib 400 mg BID), the tmax is 1.5 h. Also, the tmax in series [1] (day 12 of cycle 1, capivasertib 400 mg BID, listed as Capivasertib) is 1.48^a (0.6–5.5) h. In addition, in series [2], the “Median DoR (95% CI)” value is reported as 3.8 months and the “patients with confirmed partial response to treatment” value was “Two”. In addition, in series [2] (full analysis set), the “CBR (95% CI) at 24 weeks” value is reported as 14.3% and the “ORR (95% CI)” value came out at 9.5%. In addition, in series [2] (full analysis set, 15 PFS events), the “median PFS (95% CI)” value was 3.4 months.
